From patent US20220340764A1, “HYDROPHOBIC AND OLEOPHOBIC SURFACES AND USES THEREOF” (Technion Research & Development Foundation Limited, priority 2012, published 2022)

Key:
[1] = Static contact angle (wettability) of wax-coated surfaces, Attension Theta tensiometer; type: physicochemical; design: C.A. Cyclohexane / C.A. hexadecane / C.A. Water / C.A. Glycerol / C.A. Ethylene Glycol / C.A. Benzyl Chloride / C.A. Clorobenzene: unit not given here; conditions: for C.A. Ethylene Glycol: liquid Ethylene Glycol; for C.A. Glycerol: liquid Glycerol; for C.A. Water: liquid Water; for C.A. Benzyl Chloride: liquid Benzyl Chloride; for C.A. Clorobenzene: liquid Clorobenzene; for C.A. Cyclohexane: liquid Cyclohexane; for C.A. hexadecane: liquid hexadecane
Excerpt: Typically, but not exclusively, in order to measure the static contact angle, a drop of liquid is formed on the tip of a hypodermic needle attached to a screw syringe. The syringe is fastened to a stand which reduces any irregularities that are produced by manual drop deposition. The substrate is then raised until it touches the drop using the Y control of the stage. The drop is the then brought into the field of view and onto the focal point of the microscope by x-y translation of the stage and image is captured. The static contact angle is calculated by methods known in the art. An exemplary methodology and system for measuring a static contact angle in described in Example s in the Examples section that follows.
The wettability of the surfaces was characterized using water contact angle (C.A.) measurements recorded with an Attension Theta tensiometer. The water wettability measurements were performed with a constant high-purity water drop volume of 7 μL.
Oil contact angles were determined for the following liquids: Glycerol, ethylene glycol, olive oil, benzyl chloride, clorobenzene, cyclohexane and hexadecane, using an Attension Theta tensiometer with approximately 8 μL liquid drops.
Time-dependent contact angle measurements were performed during a period of two weeks.
(§1) Contact angles and RMS roughness were measured as described in Example 2 hereinabove.

B. cereus 407 biofilms = test: Biofilm formation on wax-coated glass substrates, LIVE/DEAD staining, CLSM; type: cell-based, Bacillus cereus; conditions: glass substrate with thermally evaporated wax, in comparison to control glass surface; FIGS. 7A-7E
Experimental: Bacillus cereus 407 and ATCC 10987 stains were obtained from Michel Gohar's lab collection (INRA, France).
(§2) For biofilm generation, bacteria were grown to stationary phase in LB (Lysogeny broth) medium at 37° C. in shaking culture. The generated cultures were seeded (by dilution 1:100) into sterile polystyrene multidishes containing different substrates and inoculated into fresh media (37° C., 5 95% air/5% CO2 (v/v) statically without agitation.
(§3) To visualize the constructed biofilms, the substrates were removed from the wells, washed with PBS buffer and stained with FilmTracer™ LIVE/DEAD Biofilm Viability Kit (Molecular Probes, OR) according to the manufacturer's protocol. The stained samples were observed using an Olympus IX81 confocal laser scanning microscope (CLSM, Japan). Live cells were stained green, while dead cells were stained red. Fluorescence emission of the stained samples was measured using an Olympus IX81 CLSM equipped with 488-nm argon-ion and 543-nm helium-neon lasers.
(§4) Two different biofilm forming pathogenic bacteria, B. cereus (Gram positive) and P. aeruginosa (Gram negative), which are often encountered in clinical and industrial settings, were tested for their ability to form biofilm on glass substrates having thermally evaporated thereon the following wax materials: C24F50, C36H74, C40H82 and C44H90.

[2] = RMS roughness of wax-coated surfaces by confocal microscopy; type: physicochemical; conditions: for Roughness (RMS): spray coated on Si wafer, 5 seconds×4 cycles, wax solution; for RMS roughness growth: thermally-evaporated on silicon substrate
Experimental: RMS roughness (Rq) is typically calculated according to the following formula: […]
Confocal microscopy (Leica DCM3D) was used for roughness measurements. Time-dependent measurements were performed on counterpart samples having non-fluorinated wax coatings that were used for XRD time-dependent measurements. In situ time-resolved confocal microscopy was used for observation of the change in surface roughness over a constant 100 μm×100 μm area for duration of 160 hours. A topographical image was collected every hour. These experiments encompassed the same duration and time intervals as the time-dependent XRD measurements hereinabove.
Similar time-dependent measurements were performed for samples coated with fluorinated wax, maintained at a temperature of 90° C., during 60 hours. These experiments were supported by time-dependent XRD measurements performed at 90° C. during 60 hours, with 1 hour time intervals.
as §1

P. aeruginosa biofilm = test: Biofilm formation on wax-coated glass substrates, LIVE/DEAD staining, CLSM; type: cell-based, Pseudomonas aeruginosa PA14; conditions: glass substrate with thermally evaporated wax; FIGS. 8A-E
Experimental: Pseudomonas aeruginosa PA14 was obtained from Shlomo Sela's lab strain collection (Agricultural Research Organization, Israel).
as §2, §3, §4

[3] = spray coated on Si wafer, 5 seconds×4 cycles, wax solution
[4] = thermally-evaporated wax on Silicon substrate
[5] = thermally evaporated on silicon wafer, maintained at 90° C., 18 hr
[6] = thermally evaporated on silicon wafer, maintained at 90° C., 20 hr
[7] = thermally evaporated on silicon wafer, maintained at 90° C., 22 hr
[8] = thermally evaporated on silicon wafer, maintained at 90° C., 30 hr
[9] = thermally evaporated on silicon wafer, maintained at 90° C., 40 hr
[10] = thermally evaporated on silicon wafer, maintained at 90° C., 50 hr
[11] = thermally evaporated on silicon wafer, maintained at 90° C., 60 hr

## CCCCCCCCCCCCCCCCCCCCCCCCCCCCCCCCCCCCCCCC [C40, tetracontane]
[1]; [3]
  C.A. Ethylene Glycol: 62
  C.A. Glycerol: 69
  C.A. Water: 85
[1]; [4]
  C.A. Benzyl Chloride: Fully wetted
  C.A. Clorobenzene: Fully wetted
  C.A. Cyclohexane: Fully wetted
  C.A. Ethylene Glycol: 112
  C.A. Glycerol: 144
  C.A. Water: 167
  C.A. hexadecane: Fully wetted
B. cereus 407 biofilms
  B. cereus biofilm formation on coated substrate: could not adhere successfully to form confluent biofilms
[2]
  Roughness (RMS): 0.06-0.09 μm

## FC(F)(F)C(F)(F)C(F)(F)C(F)(F)C(F)(F)C(F)(F)C(F)(F)C(F)(F)C(F)(F)C(F)(F)C(F)(F)C(F)(F)C(F)(F)C(F)(F)C(F)(F)C(F)(F)C(F)(F)C(F)(F)C(F)(F)C(F)(F)F [C20, perfluoroeicosane, reference compound]
[1]; [4]
  C.A. Benzyl Chloride: Fully wetted
  C.A. Clorobenzene: Fully wetted
  C.A. Cyclohexane: Fully wetted
  C.A. Ethylene Glycol: 122
  C.A. Glycerol: 120
  C.A. Water: 128
  C.A. hexadecane: Fully wetted

## CCCCCCCCCCCCCCCCCCCCCCCCCCCCCCCCCCCCCCCCCCCCCCCCCC [C50, pentacontane]
[1]; [4]
  C.A. Benzyl Chloride: Fully wetted
  C.A. Clorobenzene: Fully wetted
  C.A. Cyclohexane: Fully wetted
  C.A. Ethylene Glycol: 100
  C.A. Glycerol: 111
  C.A. Water: 151
  C.A. hexadecane: Fully wetted

## FC(F)(F)C(F)(F)C(F)(F)C(F)(F)C(F)(F)C(F)(F)C(F)(F)C(F)(F)C(F)(F)C(F)(F)C(F)(F)C(F)(F)C(F)(F)C(F)(F)C(F)(F)C(F)(F)C(F)(F)C(F)(F)C(F)(F)C(F)(F)C(F)(F)C(F)(F)C(F)(F)C(F)(F)F [C24, perfluorotetracosane]
[1]; [3]
  C.A. Ethylene Glycol: 100
  C.A. Glycerol: 140
  C.A. Water: 141
[1]; [5]
  C.A. Ethylene Glycol 18 hr: 167
  C.A. Glycerol 18 hr: 163
  C.A. Hexadecane 18 hr: 122
  C.A. Water 18 hr: 160
[1]; [6]
  C.A. Ethylene Glycol 20 hr: 159
  C.A. Glycerol 20 hr: 164
  C.A. Hexadecane 20 hr: 115
  C.A. Water 20 hr: 165
[1]; [7]
  C.A. Ethylene Glycol 22 hr: 155
  C.A. Glycerol 22 hr: 165
  C.A. Hexadecane 22 hr: 118
  C.A. Water 22 hr: 161
[1]; [8]
  C.A. Ethylene Glycol 30 hr: 160
  C.A. Glycerol 30 hr: 167
  C.A. Hexadecane 30 hr: 119
  C.A. Water 30 hr: 168
[1]; [9]
  C.A. Ethylene Glycol 40 hr: 156
  C.A. Glycerol 40 hr: 167
  C.A. Hexadecane 40 hr: 124
  C.A. Water 40 hr: 168
[1]; [10]
  C.A. Ethylene Glycol 50 hr: 161
  C.A. Glycerol 50 hr: 163
  C.A. Hexadecane 50 hr: 123
  C.A. Water 50 hr: 163
[1]; [11]
  C.A. Ethylene Glycol 60 hr: 166
  C.A. Glycerol 60 hr: 166
  C.A. Hexadecane 60 hr: 117
  C.A. Water 60 hr: 167
[1]; thermally evaporated on silicon wafer, room temperature, two-week period
  time-dependent contact angle of water, glycerol, ethylene glycol and hexadecane: slight variation of the measured contact angles
[1]; thermally-evaporated on silicon substrate, FIG. 3A insert
  contact angle of olive oil drop: high contact angle
[1]; [4]
  C.A. Benzyl Chloride: 139
  C.A. Clorobenzene: 138
  C.A. Cyclohexane: 112
  C.A. Ethylene Glycol: 171
  C.A. Glycerol: 172
  C.A. Water: 172
  C.A. hexadecane: 112
B. cereus 407 biofilms
  B. cereus biofilm formation on coated substrate: could not adhere successfully to form confluent biofilms
[2]
  Roughness (RMS): 0.12 μm
[2]; thermally-evaporated fluorinated wax, at 90° C. after a 60 hour time period
  surface roughness (R.M.S.): 0.9 μm
[2]; thermally-evaporated fluorinated wax, before maintaining at 90° C.
  surface roughness (R.M.S.), initial: 0.7 μm
[2]; 20 hours at 70° C.
  RMS roughness growth: about 0.06 μm
[2]; 20 hours at 80° C.
  RMS roughness growth: about 0.08 μm
[2]; maintained at 90° C.
  RMS roughness growth: about 0.4 μm
P. aeruginosa biofilm
  P. aeruginosa biofilm formation on coated substrate: substantially prevented the biofilm formation
